Measured values from ChEMBL document CHEMBL4507266, “Data for DCP probe BAY-784” (2021).

Experiments:
[1] = molecular target: Microtubule-associated serine/threonine-protein kinase 1 (Homo sapiens) (UniProt Q9Y2H9); conditions: Compound concentration 1000.0 nM
[2] = molecular target: Serine/threonine-protein kinase PLK4 (Homo sapiens) (UniProt O00444); conditions: Compound concentration 1000.0 nM
[3] = molecular target: Serine/threonine-protein kinase D3 (Homo sapiens) (UniProt O94806); conditions: Compound concentration 1000.0 nM
[4] = molecular target: Serine/threonine-protein kinase WNK2 (Homo sapiens) (UniProt Q9Y3S1); conditions: Compound concentration 1000.0 nM
[5] = molecular target: Insulin receptor (Homo sapiens) (UniProt P06213); conditions: Compound concentration 1000.0 nM
[6] = molecular target: Phosphatidylinositol 4,5-bisphosphate 3-kinase catalytic subunit beta isoform (Homo sapiens) (UniProt P42338); conditions: Compound concentration 1000.0 nM
[7] = molecular target: Serine/threonine-protein kinase 25 (Homo sapiens) (UniProt O00506); conditions: Compound concentration 1000.0 nM
[8] = molecular target: cAMP-dependent protein kinase catalytic subunit alpha (Homo sapiens) (UniProt P17612); conditions: Compound concentration 1000.0 nM
[9] = test system: Epidermal growth factor receptor (Homo sapiens), P00533 [T790M]; conditions: Compound concentration 1000.0 nM
[10] = molecular target: Platelet-derived growth factor receptor beta (Homo sapiens) (UniProt P09619); conditions: Compound concentration 1000.0 nM
[11] = test system: Hepatocyte growth factor receptor (Homo sapiens), P08581 [Y1235D]; conditions: Compound concentration 1000.0 nM
[12] = molecular target: Atypical kinase COQ8B, mitochondrial (Homo sapiens) (UniProt Q96D53); conditions: Compound concentration 1000.0 nM
[13] = molecular target: Tyrosine-protein kinase FRK (Homo sapiens) (UniProt P42685); conditions: Compound concentration 1000.0 nM
[14] = molecular target: TGF-beta receptor type-1 (Homo sapiens) (UniProt P36897); conditions: Compound concentration 1000.0 nM
[15] = test system: Phosphatidylinositol 4,5-bisphosphate 3-kinase catalytic subunit alpha isoform (Homo sapiens), P42336 [M1043I]; conditions: Compound concentration 1000.0 nM
[16] = molecular target: Proto-oncogene tyrosine-protein kinase receptor Ret (Homo sapiens) (UniProt P07949); conditions: Compound concentration 1000.0 nM
[17] = molecular target: Serine/threonine-protein kinase 16 (Homo sapiens) (UniProt O75716); conditions: Compound concentration 1000.0 nM
[18] = molecular target: Leucine-rich repeat serine/threonine-protein kinase 2 (Homo sapiens) (UniProt Q5S007); conditions: Compound concentration 1000.0 nM
[19] = molecular target: Epithelial discoidin domain-containing receptor 1 (Homo sapiens) (UniProt Q08345); conditions: Compound concentration 1000.0 nM
[20] = molecular target: Dual specificity mitogen-activated protein kinase kinase 5 (Homo sapiens) (UniProt Q13163); conditions: Compound concentration 1000.0 nM
[21] = molecular target: Cyclin-dependent kinase 5 (Homo sapiens) (UniProt Q00535); conditions: Compound concentration 1000.0 nM
[22] = molecular target: T1, Alpha-1D adrenergic receptor (Homo sapiens) (UniProt P25100); conditions: Compound concentration 10.0 uM
T1 sequence (whole entry): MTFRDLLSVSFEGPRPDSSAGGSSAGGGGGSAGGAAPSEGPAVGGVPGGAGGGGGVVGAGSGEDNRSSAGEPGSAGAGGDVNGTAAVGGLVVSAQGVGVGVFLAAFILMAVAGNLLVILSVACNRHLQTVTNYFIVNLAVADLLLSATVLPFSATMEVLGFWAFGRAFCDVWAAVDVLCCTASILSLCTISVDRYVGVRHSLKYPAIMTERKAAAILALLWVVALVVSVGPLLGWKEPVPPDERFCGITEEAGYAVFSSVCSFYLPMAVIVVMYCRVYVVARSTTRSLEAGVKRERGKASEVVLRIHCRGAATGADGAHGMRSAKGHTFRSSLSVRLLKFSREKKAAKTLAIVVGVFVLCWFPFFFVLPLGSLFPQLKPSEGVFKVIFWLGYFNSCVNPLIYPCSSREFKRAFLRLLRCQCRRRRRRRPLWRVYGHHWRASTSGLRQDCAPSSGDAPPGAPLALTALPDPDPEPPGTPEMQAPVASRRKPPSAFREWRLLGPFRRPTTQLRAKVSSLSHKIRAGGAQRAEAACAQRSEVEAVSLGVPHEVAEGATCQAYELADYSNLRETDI

[23] = molecular target: 5'-AMP-activated protein kinase catalytic subunit alpha-1 (Homo sapiens) (UniProt Q13131); conditions: Compound concentration 1000.0 nM
[24] = molecular target: Muscle, skeletal receptor tyrosine-protein kinase (Homo sapiens) (UniProt O15146); conditions: Compound concentration 1000.0 nM
[25] = molecular target: Phosphatidylinositol 4-phosphate 5-kinase type-1 alpha (Homo sapiens) (UniProt Q99755); conditions: Compound concentration 1000.0 nM
[26] = molecular target: Dual specificity protein kinase CLK1 (Homo sapiens) (UniProt P49759); conditions: Compound concentration 1000.0 nM
[27] = test system: Tyrosine-protein kinase ABL1 (Homo sapiens), P00519 [H396P]; conditions: Compound concentration 1000.0 nM
[28] = molecular target: Serine/threonine-protein kinase TNNI3K (Homo sapiens) (UniProt Q59H18); conditions: Compound concentration 1000.0 nM
[29] = molecular target: Casein kinase I isoform delta (Homo sapiens) (UniProt P48730); conditions: Compound concentration 1000.0 nM
[30] = molecular target: Rho-associated protein kinase 1 (Homo sapiens) (UniProt Q13464); conditions: Compound concentration 1000.0 nM
[31] = test system: Epidermal growth factor receptor (Homo sapiens), P00533 [L858R]; conditions: Compound concentration 1000.0 nM
[32] = molecular target: Dual specificity testis-specific protein kinase 1 (Homo sapiens) (UniProt Q15569); conditions: Compound concentration 1000.0 nM
[33] = test system: Phosphatidylinositol 4,5-bisphosphate 3-kinase catalytic subunit alpha isoform (Homo sapiens), P42336 [H1047L]; conditions: Compound concentration 1000.0 nM
[34] = molecular target: Megakaryocyte-associated tyrosine-protein kinase (Homo sapiens) (UniProt P42679); conditions: Compound concentration 1000.0 nM
[35] = molecular target: Mitogen-activated protein kinase kinase kinase kinase 4 (Homo sapiens) (UniProt O95819); conditions: Compound concentration 1000.0 nM
[36] = molecular target: Tyrosine-protein kinase Mer (Homo sapiens) (UniProt Q12866); conditions: Compound concentration 1000.0 nM
[37] = molecular target: Serine/threonine-protein kinase ULK2 (Homo sapiens) (UniProt Q8IYT8); conditions: Compound concentration 1000.0 nM
Sequence of Serine/threonine-protein kinase ULK2 (Homo sapiens) (Q8IYT8 whole entry): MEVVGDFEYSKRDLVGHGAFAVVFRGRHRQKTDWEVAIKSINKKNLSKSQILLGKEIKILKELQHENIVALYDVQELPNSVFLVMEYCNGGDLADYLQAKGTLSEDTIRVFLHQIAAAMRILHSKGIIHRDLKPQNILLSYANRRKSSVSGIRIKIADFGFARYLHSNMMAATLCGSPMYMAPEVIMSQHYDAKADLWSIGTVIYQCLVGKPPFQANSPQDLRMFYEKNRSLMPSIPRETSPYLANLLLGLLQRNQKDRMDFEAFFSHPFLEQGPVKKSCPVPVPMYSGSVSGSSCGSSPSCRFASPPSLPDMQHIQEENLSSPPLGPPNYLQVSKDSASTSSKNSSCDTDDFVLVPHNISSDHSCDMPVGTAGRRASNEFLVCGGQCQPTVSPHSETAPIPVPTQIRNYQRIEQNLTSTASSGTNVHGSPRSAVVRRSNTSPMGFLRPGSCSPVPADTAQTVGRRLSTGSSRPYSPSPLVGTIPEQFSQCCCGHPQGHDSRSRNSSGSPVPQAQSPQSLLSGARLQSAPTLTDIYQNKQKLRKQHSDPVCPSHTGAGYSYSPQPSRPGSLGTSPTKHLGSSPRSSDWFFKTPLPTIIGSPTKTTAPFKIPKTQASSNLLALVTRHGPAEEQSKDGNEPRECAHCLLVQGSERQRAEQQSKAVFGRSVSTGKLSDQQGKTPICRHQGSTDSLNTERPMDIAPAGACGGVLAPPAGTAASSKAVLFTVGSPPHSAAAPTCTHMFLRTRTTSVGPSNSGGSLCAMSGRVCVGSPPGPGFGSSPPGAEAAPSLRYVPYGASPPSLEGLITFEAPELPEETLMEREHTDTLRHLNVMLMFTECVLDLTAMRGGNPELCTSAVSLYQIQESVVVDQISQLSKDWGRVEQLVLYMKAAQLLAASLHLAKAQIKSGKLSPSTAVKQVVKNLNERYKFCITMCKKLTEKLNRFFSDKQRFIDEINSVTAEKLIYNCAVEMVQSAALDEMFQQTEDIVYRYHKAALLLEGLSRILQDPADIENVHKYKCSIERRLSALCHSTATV

Sequence of Tyrosine-protein kinase FRK (Homo sapiens) (P42685 whole entry): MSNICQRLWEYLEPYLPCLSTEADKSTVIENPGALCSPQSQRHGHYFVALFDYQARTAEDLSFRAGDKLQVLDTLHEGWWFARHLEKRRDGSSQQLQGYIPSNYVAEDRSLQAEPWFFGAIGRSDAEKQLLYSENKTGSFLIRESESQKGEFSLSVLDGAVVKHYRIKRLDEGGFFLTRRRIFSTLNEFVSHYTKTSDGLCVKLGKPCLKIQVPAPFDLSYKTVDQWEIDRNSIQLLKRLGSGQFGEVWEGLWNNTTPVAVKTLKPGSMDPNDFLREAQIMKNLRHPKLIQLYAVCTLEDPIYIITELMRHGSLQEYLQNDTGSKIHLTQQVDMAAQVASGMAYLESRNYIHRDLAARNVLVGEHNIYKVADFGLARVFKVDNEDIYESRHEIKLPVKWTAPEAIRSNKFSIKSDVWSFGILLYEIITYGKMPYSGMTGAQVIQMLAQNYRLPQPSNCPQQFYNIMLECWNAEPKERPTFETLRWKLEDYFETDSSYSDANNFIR
Sequence of Muscle, skeletal receptor tyrosine-protein kinase (Homo sapiens) (O15146 whole entry): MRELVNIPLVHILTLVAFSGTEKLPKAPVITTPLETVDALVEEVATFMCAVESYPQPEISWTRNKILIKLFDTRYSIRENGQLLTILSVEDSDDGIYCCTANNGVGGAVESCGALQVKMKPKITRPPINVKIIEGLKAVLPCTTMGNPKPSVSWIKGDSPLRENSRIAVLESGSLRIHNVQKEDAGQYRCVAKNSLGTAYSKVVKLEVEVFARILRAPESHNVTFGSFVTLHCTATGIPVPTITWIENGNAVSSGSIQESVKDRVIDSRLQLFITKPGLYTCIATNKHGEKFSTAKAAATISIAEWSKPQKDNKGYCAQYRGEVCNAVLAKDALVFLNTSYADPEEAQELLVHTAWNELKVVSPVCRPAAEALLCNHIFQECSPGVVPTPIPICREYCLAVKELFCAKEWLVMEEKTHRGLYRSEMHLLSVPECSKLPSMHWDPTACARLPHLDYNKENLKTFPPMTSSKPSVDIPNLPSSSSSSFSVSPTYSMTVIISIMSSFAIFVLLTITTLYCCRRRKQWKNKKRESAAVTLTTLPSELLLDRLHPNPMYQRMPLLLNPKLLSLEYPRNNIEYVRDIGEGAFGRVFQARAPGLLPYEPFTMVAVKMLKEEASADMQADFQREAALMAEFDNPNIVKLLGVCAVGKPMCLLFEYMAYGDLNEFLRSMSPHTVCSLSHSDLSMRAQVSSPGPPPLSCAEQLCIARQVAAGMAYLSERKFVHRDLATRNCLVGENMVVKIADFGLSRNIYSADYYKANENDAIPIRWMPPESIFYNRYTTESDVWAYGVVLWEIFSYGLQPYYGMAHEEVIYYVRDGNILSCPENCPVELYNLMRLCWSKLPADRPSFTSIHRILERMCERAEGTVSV
Sequence of Serine/threonine-protein kinase TNNI3K (Homo sapiens) (Q59H18 whole entry, canonical isoform): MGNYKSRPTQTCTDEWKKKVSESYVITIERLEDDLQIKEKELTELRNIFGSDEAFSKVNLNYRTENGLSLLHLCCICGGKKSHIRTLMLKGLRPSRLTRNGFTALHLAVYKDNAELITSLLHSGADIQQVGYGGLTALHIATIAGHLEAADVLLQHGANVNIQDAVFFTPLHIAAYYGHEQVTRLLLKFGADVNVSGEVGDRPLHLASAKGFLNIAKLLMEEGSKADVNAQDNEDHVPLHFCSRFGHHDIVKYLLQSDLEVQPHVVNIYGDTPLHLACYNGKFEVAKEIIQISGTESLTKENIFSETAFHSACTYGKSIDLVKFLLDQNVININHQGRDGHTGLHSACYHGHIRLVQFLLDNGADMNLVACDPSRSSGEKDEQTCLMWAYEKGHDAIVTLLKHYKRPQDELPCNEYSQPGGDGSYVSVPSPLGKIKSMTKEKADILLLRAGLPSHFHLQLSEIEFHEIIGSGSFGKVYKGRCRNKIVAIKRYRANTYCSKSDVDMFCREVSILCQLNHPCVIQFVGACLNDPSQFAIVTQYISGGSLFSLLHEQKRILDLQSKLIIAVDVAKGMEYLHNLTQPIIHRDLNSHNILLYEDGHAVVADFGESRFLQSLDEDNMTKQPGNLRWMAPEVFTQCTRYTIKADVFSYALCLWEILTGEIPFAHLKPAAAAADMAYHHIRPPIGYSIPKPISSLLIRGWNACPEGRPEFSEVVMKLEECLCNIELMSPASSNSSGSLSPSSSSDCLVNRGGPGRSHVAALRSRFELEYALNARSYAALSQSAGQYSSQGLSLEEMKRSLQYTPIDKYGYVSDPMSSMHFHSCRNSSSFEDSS
Sequence of Serine/threonine-protein kinase 25 (Homo sapiens) (O00506 whole entry, looked up): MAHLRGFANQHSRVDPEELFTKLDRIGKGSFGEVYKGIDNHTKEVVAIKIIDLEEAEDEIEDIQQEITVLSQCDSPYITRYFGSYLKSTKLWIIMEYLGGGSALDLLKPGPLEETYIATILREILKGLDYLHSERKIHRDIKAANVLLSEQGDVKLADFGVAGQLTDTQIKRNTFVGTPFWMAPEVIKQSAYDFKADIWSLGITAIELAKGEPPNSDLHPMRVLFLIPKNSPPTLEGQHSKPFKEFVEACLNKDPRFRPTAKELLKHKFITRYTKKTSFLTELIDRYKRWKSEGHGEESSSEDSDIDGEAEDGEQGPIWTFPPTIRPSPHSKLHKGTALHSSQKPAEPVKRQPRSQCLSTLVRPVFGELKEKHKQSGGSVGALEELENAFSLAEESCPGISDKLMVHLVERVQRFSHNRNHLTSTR
Sequence of Phosphatidylinositol 4-phosphate 5-kinase type-1 alpha (Homo sapiens) (Q99755 whole entry): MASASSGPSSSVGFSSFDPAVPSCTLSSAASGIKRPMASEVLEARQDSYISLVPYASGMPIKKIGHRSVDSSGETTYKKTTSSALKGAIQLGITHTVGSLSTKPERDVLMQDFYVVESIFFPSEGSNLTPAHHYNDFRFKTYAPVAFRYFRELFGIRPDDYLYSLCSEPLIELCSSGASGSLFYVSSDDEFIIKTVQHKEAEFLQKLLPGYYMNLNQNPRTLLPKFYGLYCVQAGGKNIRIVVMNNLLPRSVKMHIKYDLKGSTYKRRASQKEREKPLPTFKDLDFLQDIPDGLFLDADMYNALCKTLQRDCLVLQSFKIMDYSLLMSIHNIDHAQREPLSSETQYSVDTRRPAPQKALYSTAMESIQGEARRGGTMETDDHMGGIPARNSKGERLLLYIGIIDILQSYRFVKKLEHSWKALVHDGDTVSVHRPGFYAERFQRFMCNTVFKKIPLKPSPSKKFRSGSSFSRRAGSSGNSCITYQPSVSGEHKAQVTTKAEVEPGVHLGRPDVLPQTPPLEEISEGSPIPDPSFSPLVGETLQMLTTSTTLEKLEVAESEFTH
Sequence of 5'-AMP-activated protein kinase catalytic subunit alpha-1 (Homo sapiens) (Q13131 whole entry, looked up): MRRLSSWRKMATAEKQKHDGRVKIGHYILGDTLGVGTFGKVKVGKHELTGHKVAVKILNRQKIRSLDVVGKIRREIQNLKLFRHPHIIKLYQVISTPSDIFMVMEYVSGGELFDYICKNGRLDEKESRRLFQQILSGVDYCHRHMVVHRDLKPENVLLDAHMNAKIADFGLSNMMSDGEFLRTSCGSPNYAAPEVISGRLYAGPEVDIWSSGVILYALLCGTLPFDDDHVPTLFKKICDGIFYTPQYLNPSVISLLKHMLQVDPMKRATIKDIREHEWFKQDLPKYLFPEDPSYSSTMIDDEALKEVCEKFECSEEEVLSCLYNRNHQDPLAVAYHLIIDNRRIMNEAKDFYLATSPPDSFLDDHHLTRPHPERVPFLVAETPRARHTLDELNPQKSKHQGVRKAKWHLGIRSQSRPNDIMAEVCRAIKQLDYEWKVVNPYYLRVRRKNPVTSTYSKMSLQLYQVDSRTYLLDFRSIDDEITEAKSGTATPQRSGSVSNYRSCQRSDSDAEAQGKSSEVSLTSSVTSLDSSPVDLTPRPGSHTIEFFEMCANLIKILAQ

O=C(NCc1ncc(C(F)(F)F)cc1Cl)c1ccc2c(c1)C1(CCS(=O)(=O)CC1)[C@H](C1CC1)N2S(=O)(=O)c1ccc(F)cc1 [BAY-784]
inactive: residual activity [1] 54% | residual activity [2] 92% | residual activity [3] 100% | residual activity [4] 97% | residual activity [5] 100% | residual activity [6] 68% | residual activity [7] 100% | residual activity [8] 86% | residual activity [9] 100% | residual activity [10] 92% | residual activity [11] 100% | residual activity [12] 83% | residual activity [13] 100% | residual activity [14] 100% | residual activity [15] 93% | residual activity [16] 98% | residual activity [17] 88% | residual activity [18] 82% | residual activity [19] 100% | residual activity [20] 69% | inhibition [22] 4.13% | residual activity [24] 100% | residual activity [25] 100% | residual activity [26] 100% | residual activity [27] 100% | residual activity [28] 100% | residual activity [29] 85% | residual activity [30] 94% | residual activity [31] 94% | residual activity [32] 91% | residual activity [33] 77% | residual activity [34] 73% | residual activity [35] 91% | residual activity [36] 100% | residual activity [37] 58%
active: residual activity [21] 0% | residual activity [23] 39%

O=C(NCc1ncc(C(F)(F)F)cc1Cl)c1ccc2c(c1)C1(CCS(=O)(=O)CC1)[C@@H](C1CC1)N2S(=O)(=O)c1ccc(F)cc1 [BAY-786]
inactive: residual activity [1] 61% | residual activity [2] 92% | residual activity [3] 100% | residual activity [5] 100% | residual activity [6] 75% | residual activity [7] 99% | residual activity [8] 98% | residual activity [9] 100% | residual activity [10] 77% | residual activity [11] 100% | residual activity [12] 85% | residual activity [13] 99% | residual activity [14] 84% | residual activity [15] 56% | residual activity [16] 100% | residual activity [17] 99% | residual activity [18] 98% | residual activity [19] 100% | residual activity [20] 90% | residual activity [21] 89% | inhibition [22] -3.69% | residual activity [23] 97% | residual activity [24] 79% | residual activity [25] 100% | residual activity [26] 100% | residual activity [27] 100% | residual activity [28] 100% | residual activity [29] 93% | residual activity [30] 82% | residual activity [31] 100% | residual activity [32] 85% | residual activity [33] 85% | residual activity [34] 74% | residual activity [35] 100% | residual activity [36] 100% | residual activity [37] 54%
active: residual activity [4] 0%
